For series [1] the following is noted: in water; cited from earlier work.
The target in series [2] is T1, HEWL fibrils incubated for different lengths of time (Gallus gallus, UniProt P00698).
T1 construct: Lyophilized HEWL was dissolved at 10 mg/mL in 10 mM pH 3 sodium citrate buffer with 0.1 M NaCl; purchased Sigma-Aldrich; host or cells: hen egg white; fibrillised in house (pH 3, 70 °C, stirred)
The series can be described thus: Fluorescence enhancement of dyes versus HEWL incubation time. It counts as binding, hen. The settings on record: dye 10 μM, HEWL 10 μM monomer basis. The protocol:
Hen egg white lysozyme (HEWL) was used to form fibrillary amyloid aggregates for use in this study. […] For these experiments. HEWL (Sigma-Aldrich) was incubated at 70′C and a concentration of 350 μM in pH 3 sodium citrate buffer (10 mM) with 100 mM NaCl.
A plot of normalized fluorescence enhancement for all four PEs and Thioflavin T with HEWL fibrils incubated for different lengths of time is shown in FIG. 15. PE1+ and PE2+ track amyloid formation in roughly the same way as ThT, showing a sigmoidal curve with onset of a logarithmic growth phase occurring at the same time, around 1 hour of incubation. The plateau phase, as monitored by fluorescence of any of those three PEs or ThT, appeared at 2 hours incubation.
(§1) For studies of fluorescence enhancement vs. protein incubation time, dyes were mixed with protein sample in phosphate buffer (10 mM, pH 7.4) at equal monomer concentration of 10 μM in the wells of a standard 96-well plate. Emission spectra were obtained using top read with a SpectraMax M2e plate-reading spectrophotometer (Molecular Devices, Sunnyvale, CA). Experiments were performed in duplicate and errors are reported as standard deviation. For analysis of bound PE excitation and emission spectra and protein-PE energy transfer, PEs (500 nM) were mixed with protein sample (5 μM, monomer basis) in phosphate buffer and the solution transferred to a quartz, fluorometry cuvette. Spectra were obtained on a PTI QuantaMaster 40 steady state spectrofluorometer (HORIBA Scientific, Edison, NJ).

Another series addresses T2, HEWL amyloid (Gallus gallus, UniProt P00698).
T2 construct: Lyophilized HEWL was dissolved at 10 mg/mL in 10 mM pH 3 sodium citrate buffer with 0.1 M NaCl; purchased Sigma-Aldrich; host or cells: hen egg white; fibrillised in house (pH 3, 70 °C, stirred)
Kind of series: Binding saturation assay of PEs to HEWL amyloid (Hill fit). Also noted: species or system hen. As to conditions: for Hill coeffi.: PE binding to HEWL amyloid. The protocol:
Next, binding saturation assays were conducted to quantify the affinity of PE-amyloid binding; data and fitted curves were produced and the fitted parameters are summarized in the last two columns of Table 1. Since the linear fibril binding sites could fit many PEs, fits to binding curves were performed to the Hill equation to capture possible binding cooperativity:
[formula] where x is PE concentration (with protein concentration fixed), y is PE fluorescence intensity. […] Fits to the data for the three cationic PEs produced Fmax values close to the observed saturation value, and the other two parameters are reported as calculated. […] Furthermore, the cooperativity of PE binding increased from almost no cooperativity for PE1+, to some positive cooperativity for PE2+, to still more positive cooperativity for PE3+. The quantitative physical meaning of the Hill parameter is not quite clear except in special cases, but in a general way it is possible to conclude that for the cationic PEs, the shortest PE has non-cooperative binding to HEWL amyloid (Michaelis-Menten binding), and the two longer PEs have increasingly positively cooperative binding. […] The effect of PE1− non-specific binding to HEWL monomers precluded accurate determination of a binding constant for PE1−/amyloid interactions such that a quantitative comparison of binding between the cationic and anionic compounds could not be made.
For determination of binding constant of PEs to amyloid aggregates, PEs were mixed with HEWL amyloid in phosphate buffer at a final concentration of 100 nM-5 μM for PEs and 5 μM (monomer basis) for protein. The solutions were then transferred to a quartz fluorometry cuvette and emission measured at the pertinent wavelength. Experiments were performed in duplicate and errors reported as standard deviation. Hill function fits to PE binding curves were calculated in OriginPro 9.

A short description of series [3]: Absorbance/fluorescence spectroscopy and fluorescence quantum yield (comparative method) of PEs and PE/substrate aggregates. It counts as physicochemical.
A further series deals with T3, HEWL amyloids (Gallus gallus, UniProt P00698).
T3 construct: Lyophilized HEWL was dissolved at 10 mg/mL in 10 mM pH 3 sodium citrate buffer with 0.1 M NaCl; purchased Sigma-Aldrich; host or cells: hen egg white; fibrillised in house (pH 3, 70 °C, stirred)
The series can be described thus: HEWL to PE Förster resonance energy transfer. It counts as binding, hen. The settings on record: excitation 280 nm.
Description: The results are summarized as FRET efficiencies in FIG. 20, illustrating HEWL ? PE FRET efficiencies calculated from spectral data by the equation E=FA/(FD+FA) where FD is the integrated area under the donor emission peak, and FA is the integrated area under the acceptor emission peak. This simple expression is valid for this case since the PEs are nonfluorescent when excited at the donor excitation wavelength, eliminating crosstalk. Thus, FA is the total number of energy transfer events, and (FA+FD) is the total number of excitation events. Theoretically, the efficiencies should be convertible into distances by
as §1, with “Spectra were obtained on a PTI QuantaMaster 40 steady state spectrofluorometer (HORIBA Scientific, Edison, NJ).” left out

Where two headings read alike, the source gives them in different places.

We go through two compounds from patent publication US12163953B2, “P-phenylene ethynylene compounds as bioactive and detection agents” (STC.UNM, priority 2014, dated 2024).

T2 sequence (P00698 19-147): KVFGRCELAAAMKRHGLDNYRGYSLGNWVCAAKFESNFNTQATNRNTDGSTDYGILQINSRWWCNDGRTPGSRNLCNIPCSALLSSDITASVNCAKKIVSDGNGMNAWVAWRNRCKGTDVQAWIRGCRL
T1 sequence (P00698 19-147): as above
T3 sequence (P00698 19-147): as above

Turning to `CCOC(=O)c1ccc(C#Cc2cc(OCC[N+](C)(C)C)c(C#Cc3ccc(C#Cc4cc(OCC[N+](C)(C)C)c(C#Cc5ccc(C(=O)OCC)cc5)cc4OCC[N+](C)(C)C)cc3)cc2OCC[N+](C)(C)C)cc1` [PE2+], in series [1], the “fluorescence quantum yield, previously reported value” is recorded as 0.039. In addition, the “HEWL incubation time at which the plateau phase of fluorescence enhancement appears” value in series [2] worked out at 2 h. Also, on HEWL amyloid, the Kd amounted to 1150 nM and the Hill coeffi. worked out at 1.15. Also, the “centre of structured emission upon aggregation with substrate” value in series [3] (+2C with DLPG, −1C with LaCh) worked out at 450 nm. Moreover, the “fluorescence quantum yield of aggregate with DLPG” value in series [3] ([…] PE with 16 uM DLPG) is given as 0.63. In addition, the “fluorescence enhancement on aggregation with DLPG” value in series [3] (at 440 nm) was 39 times. Also, the “fluorescence quantum yield, PE alone” value in series [3] (in water, corrected value of this study) is not above 0.016. For the same compound, the “HEWL to PE FRET efficiency, relative” value on HEWL amyloids was “highest efficiency”.

As for `CCOC(=O)c1ccc(C#Cc2cc(OCC[N+](C)(C)C)c(C#Cc3ccc(C#Cc4cc(OCC[N+](C)(C)C)c(C#Cc5ccc(C#Cc6cc(OCC[N+](C)(C)C)c(C#Cc7ccc(C(=O)OCC)cc7)cc6OCC[N+](C)(C)C)cc5)cc4OCC[N+](C)(C)C)cc3)cc2OCC[N+](C)(C)C)cc1` [PE3+], the “HEWL incubation time at which the plateau phase of fluorescence enhancement appears” value in series [2] was “up to 3.5 hours”. Moreover, at HEWL amyloid (HEWL amyloid, Hill fit, read-out: calculated dissociation constant), the Kd is 858 nM. The Hill coeffi. at HEWL amyloid was determined as 1.89.
